In ChEMBL document CHEMBL4507291 (2021):

What was measured:
[1] = biological target: T1, Activin receptor type-1B (Homo sapiens) (UniProt P36896)
T1 sequence (whole entry): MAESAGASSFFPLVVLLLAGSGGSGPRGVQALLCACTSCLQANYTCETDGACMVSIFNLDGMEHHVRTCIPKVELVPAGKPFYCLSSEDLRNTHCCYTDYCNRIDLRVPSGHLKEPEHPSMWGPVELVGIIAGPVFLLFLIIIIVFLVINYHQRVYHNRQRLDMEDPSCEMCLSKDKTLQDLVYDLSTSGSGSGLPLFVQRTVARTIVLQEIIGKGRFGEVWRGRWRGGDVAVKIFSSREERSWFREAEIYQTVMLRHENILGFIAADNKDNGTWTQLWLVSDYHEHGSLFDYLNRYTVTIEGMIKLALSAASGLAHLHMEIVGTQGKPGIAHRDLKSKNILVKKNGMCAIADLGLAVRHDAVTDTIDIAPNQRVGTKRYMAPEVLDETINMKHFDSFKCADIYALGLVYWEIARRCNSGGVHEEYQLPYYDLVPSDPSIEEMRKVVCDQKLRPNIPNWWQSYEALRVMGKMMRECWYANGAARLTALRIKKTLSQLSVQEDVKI

[2] = biological target: STE20/SPS1-related proline-alanine-rich protein kinase (Homo sapiens) (UniProt Q9UEW8)
[3] = biological target: T2, Mitogen-activated protein kinase kinase kinase 2 (Homo sapiens) (UniProt Q9Y2U5)
T2 sequence (whole entry): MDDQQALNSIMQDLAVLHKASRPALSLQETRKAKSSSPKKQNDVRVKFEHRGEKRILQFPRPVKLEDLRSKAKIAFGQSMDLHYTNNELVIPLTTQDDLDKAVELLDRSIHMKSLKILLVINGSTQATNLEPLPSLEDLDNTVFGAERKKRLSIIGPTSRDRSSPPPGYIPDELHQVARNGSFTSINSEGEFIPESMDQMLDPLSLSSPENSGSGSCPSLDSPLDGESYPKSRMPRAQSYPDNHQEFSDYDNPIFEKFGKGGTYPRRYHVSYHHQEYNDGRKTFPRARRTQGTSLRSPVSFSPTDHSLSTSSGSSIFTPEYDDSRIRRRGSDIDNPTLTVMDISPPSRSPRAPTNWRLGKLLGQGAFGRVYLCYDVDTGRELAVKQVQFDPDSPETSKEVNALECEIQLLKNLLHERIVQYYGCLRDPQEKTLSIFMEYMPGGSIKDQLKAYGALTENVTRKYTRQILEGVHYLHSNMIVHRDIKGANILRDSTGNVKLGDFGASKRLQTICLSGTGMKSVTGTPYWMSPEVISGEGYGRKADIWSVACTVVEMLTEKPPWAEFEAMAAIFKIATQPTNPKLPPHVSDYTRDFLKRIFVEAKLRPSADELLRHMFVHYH

[4] = biological target: Calcium/calmodulin-dependent protein kinase type II subunit gamma (Homo sapiens) (UniProt Q13555)
Chain of Calcium/calmodulin-dependent protein kinase type II subunit gamma (Homo sapiens) (Q13555 whole entry): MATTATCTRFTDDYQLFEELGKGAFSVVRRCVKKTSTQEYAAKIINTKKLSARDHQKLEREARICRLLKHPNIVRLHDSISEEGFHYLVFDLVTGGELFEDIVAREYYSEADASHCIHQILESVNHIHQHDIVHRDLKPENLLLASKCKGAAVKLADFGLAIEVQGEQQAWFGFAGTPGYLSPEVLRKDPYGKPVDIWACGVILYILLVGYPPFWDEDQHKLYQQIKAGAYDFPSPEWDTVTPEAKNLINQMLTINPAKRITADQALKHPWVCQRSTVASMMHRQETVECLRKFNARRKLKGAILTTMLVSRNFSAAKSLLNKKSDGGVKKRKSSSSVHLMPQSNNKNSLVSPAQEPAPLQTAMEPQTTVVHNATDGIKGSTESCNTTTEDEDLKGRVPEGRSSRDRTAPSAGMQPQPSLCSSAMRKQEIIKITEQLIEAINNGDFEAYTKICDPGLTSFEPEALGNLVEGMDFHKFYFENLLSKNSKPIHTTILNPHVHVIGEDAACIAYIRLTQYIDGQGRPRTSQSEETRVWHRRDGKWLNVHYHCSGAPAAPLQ

[5] = biological target: T3, Rhodopsin kinase GRK7 (Homo sapiens) (UniProt Q8WTQ7)
T3 sequence (whole entry): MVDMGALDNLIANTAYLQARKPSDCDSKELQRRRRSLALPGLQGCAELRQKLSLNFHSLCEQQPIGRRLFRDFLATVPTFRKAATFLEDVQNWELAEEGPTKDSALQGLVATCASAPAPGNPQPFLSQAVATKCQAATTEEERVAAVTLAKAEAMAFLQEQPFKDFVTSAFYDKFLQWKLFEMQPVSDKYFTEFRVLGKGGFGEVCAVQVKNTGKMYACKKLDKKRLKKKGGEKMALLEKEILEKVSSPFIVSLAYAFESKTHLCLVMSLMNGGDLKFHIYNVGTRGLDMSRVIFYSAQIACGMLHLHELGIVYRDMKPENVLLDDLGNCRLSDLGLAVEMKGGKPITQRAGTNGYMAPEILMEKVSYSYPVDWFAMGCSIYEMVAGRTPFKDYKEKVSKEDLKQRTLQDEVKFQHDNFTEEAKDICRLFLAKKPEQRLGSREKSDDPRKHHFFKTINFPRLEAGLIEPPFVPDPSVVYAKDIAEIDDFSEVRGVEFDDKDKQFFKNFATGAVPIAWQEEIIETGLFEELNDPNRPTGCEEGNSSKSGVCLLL

[6] = biological target: T4, Serine/threonine-protein kinase D1 (Homo sapiens) (UniProt Q15139)
T4 sequence (whole entry): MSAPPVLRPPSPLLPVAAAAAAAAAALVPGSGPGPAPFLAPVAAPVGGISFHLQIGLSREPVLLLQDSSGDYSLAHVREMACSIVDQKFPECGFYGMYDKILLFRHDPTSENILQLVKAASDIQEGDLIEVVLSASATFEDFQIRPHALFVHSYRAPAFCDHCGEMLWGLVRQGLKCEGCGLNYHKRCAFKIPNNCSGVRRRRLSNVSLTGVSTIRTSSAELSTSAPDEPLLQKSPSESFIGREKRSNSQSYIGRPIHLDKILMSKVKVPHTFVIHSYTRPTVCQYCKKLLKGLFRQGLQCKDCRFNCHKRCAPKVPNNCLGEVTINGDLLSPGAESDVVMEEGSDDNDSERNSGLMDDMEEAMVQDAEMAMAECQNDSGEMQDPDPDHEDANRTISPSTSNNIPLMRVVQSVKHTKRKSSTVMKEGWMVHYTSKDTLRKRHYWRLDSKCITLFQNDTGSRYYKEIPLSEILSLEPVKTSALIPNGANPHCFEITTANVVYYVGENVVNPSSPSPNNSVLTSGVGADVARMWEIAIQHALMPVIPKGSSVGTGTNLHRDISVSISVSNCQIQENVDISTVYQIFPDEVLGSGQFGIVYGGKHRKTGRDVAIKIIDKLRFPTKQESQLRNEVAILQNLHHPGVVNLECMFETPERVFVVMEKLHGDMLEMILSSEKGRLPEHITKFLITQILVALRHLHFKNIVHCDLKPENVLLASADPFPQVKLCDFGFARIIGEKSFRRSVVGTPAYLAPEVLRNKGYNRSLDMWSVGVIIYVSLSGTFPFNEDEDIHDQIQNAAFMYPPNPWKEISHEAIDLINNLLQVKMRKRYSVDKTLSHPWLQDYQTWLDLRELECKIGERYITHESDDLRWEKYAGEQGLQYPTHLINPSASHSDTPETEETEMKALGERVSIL

Rattus norvegicus = species on record: Rattus norvegicus; conditions: Compound concentration 10.0 uM
[7] = biological target: Insulin-like growth factor 1 receptor (Homo sapiens) (UniProt P08069)
Chain of Insulin-like growth factor 1 receptor (Homo sapiens) (P08069 31-736 limits assumed): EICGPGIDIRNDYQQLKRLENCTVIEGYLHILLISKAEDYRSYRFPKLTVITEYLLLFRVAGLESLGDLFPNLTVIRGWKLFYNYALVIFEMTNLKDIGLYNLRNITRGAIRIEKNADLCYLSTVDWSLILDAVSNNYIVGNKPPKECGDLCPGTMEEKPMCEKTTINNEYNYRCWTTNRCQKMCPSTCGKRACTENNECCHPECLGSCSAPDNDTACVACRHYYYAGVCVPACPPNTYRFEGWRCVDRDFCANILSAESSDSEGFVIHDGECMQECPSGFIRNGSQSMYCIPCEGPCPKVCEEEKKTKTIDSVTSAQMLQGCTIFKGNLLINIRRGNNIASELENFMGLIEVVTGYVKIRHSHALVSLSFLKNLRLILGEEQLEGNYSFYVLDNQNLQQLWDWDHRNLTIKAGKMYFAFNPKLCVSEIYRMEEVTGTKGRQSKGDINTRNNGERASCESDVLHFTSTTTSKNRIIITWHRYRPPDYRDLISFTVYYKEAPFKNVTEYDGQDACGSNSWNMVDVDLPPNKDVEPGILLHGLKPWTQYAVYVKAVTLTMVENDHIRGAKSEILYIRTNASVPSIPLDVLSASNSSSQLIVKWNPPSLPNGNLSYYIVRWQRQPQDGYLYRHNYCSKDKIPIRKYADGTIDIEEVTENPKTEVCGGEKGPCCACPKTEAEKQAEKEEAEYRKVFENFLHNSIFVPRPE
Chain of Insulin-like growth factor 1 receptor (Homo sapiens) (P08069 741-1367 limits assumed): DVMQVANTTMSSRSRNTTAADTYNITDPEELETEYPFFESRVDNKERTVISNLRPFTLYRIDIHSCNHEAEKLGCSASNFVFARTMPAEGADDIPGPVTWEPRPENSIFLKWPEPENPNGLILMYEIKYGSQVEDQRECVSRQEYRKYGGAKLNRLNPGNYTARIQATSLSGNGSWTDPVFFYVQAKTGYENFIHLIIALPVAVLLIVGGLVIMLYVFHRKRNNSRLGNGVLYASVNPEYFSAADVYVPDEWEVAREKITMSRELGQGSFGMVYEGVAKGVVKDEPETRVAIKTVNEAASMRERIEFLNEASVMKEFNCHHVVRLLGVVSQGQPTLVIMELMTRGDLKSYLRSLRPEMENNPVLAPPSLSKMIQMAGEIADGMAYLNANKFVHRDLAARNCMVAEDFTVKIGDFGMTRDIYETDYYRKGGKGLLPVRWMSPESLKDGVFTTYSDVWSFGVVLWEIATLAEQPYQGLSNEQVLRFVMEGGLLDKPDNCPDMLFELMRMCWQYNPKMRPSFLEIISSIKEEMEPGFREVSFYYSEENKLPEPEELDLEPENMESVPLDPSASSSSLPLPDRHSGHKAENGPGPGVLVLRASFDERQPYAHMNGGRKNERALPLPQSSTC

[8] = biological target: Serine/threonine-protein kinase LATS1 (Homo sapiens) (UniProt O95835)
Chain of Serine/threonine-protein kinase LATS1 (Homo sapiens) (O95835 whole entry): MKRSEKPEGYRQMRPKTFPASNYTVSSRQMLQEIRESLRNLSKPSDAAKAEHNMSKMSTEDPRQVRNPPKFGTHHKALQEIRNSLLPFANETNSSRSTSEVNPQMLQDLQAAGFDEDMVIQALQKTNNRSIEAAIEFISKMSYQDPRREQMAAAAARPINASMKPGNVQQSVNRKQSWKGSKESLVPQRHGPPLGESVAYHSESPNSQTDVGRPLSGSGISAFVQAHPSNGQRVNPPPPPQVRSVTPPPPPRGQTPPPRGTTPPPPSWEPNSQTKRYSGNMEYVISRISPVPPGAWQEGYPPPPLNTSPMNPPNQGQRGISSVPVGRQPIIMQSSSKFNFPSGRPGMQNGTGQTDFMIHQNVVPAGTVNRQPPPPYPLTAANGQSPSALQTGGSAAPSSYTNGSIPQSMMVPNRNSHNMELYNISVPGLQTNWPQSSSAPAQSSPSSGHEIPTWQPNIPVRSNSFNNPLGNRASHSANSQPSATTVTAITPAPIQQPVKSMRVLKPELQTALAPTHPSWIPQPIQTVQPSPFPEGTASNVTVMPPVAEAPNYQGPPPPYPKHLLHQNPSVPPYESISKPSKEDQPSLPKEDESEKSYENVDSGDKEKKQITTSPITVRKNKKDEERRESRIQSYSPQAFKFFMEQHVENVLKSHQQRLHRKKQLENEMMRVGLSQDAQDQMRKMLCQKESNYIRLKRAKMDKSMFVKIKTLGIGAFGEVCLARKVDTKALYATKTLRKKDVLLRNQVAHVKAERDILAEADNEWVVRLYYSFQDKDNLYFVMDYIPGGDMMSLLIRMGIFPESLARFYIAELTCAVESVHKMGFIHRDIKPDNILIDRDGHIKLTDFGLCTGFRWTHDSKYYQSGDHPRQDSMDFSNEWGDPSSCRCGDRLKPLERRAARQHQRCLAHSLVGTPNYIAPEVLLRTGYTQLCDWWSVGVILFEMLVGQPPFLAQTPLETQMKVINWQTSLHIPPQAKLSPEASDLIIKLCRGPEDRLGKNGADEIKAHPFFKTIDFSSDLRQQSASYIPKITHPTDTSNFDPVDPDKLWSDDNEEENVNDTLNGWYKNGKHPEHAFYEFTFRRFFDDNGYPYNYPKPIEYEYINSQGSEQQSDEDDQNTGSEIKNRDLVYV

[9] = biological target: Myosin light chain kinase, smooth muscle (Homo sapiens) (UniProt Q15746)
Chain of Myosin light chain kinase, smooth muscle (Homo sapiens) (Q15746 whole entry): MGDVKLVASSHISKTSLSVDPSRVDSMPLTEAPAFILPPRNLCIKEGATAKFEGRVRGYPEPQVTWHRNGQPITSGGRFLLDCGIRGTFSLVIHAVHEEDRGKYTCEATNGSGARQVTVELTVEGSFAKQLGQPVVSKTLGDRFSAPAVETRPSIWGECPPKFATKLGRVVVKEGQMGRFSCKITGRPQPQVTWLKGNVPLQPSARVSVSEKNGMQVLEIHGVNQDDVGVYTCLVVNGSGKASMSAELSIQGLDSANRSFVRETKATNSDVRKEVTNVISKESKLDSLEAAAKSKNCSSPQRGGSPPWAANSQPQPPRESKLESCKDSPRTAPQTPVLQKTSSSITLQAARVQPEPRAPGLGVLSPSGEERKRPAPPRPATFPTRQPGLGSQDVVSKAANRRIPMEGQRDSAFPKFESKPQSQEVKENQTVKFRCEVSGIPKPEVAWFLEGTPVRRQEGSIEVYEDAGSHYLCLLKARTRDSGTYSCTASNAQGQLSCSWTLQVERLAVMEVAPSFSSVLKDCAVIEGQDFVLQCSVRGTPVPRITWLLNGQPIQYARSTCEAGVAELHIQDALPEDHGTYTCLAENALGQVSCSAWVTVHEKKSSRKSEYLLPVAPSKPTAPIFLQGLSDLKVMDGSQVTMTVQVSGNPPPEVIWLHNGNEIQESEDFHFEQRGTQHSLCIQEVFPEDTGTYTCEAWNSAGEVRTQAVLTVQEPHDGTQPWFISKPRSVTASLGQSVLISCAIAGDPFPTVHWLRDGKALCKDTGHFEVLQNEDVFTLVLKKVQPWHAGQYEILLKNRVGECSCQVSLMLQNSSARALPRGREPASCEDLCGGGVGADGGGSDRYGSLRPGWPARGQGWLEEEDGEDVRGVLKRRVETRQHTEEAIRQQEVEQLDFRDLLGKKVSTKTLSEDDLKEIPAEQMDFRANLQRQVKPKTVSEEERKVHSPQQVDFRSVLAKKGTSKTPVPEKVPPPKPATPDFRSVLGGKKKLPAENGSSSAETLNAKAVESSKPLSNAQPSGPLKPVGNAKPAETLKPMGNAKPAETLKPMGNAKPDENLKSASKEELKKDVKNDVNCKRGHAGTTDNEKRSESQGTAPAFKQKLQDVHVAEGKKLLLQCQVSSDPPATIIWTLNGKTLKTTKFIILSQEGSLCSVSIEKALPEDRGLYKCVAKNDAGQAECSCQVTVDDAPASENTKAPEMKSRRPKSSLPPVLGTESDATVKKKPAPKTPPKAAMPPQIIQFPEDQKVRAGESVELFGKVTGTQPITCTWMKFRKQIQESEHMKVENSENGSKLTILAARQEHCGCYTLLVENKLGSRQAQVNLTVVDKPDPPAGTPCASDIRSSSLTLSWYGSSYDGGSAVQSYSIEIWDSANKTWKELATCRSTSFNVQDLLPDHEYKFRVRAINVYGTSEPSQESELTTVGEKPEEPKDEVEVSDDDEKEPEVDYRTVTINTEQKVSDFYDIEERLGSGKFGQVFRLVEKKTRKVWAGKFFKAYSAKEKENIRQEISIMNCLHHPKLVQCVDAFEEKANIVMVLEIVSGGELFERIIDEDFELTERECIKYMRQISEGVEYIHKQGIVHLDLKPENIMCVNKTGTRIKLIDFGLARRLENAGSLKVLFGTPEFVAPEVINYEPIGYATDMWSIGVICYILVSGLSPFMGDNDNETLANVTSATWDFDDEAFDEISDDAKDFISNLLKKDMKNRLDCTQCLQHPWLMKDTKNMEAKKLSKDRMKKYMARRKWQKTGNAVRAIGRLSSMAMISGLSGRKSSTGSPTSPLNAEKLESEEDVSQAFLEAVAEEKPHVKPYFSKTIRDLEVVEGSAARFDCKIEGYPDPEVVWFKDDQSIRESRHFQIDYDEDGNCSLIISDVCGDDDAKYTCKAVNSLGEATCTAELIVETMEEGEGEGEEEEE

[10] = Compound concentration 1000.0 nM
[11] = Compound concentration 100.0 nM

C[C@@H]1CN(c2cc(-c3nn(C)c4ccc(OC5(C)CC5)cc34)ncn2)C[C@H](C)O1 [MLi-2-NC]
inactive: residual activity [1, 10] 78% | residual activity [2, 10] 70% | residual activity [3, 10] 83% | residual activity [4, 10] 90% | residual activity [5, 10] 100% | residual activity [6, 10] 82% | inhibition (Rattus norvegicus) 46.1% | residual activity [7, 10] 100% | residual activity [8, 10] 100% | residual activity [9, 10] 64%

C[C@@H]1CN(c2cc(-c3n[nH]c4ccc(OC5(C)CC5)cc34)ncn2)C[C@H](C)O1 [MLi-2]
inactive: residual activity [1, 11] 90% | residual activity [2, 11] 85% | residual activity [3, 11] 73% | residual activity [4, 11] 100% | residual activity [5, 11] 64% | residual activity [6, 11] 84% | inhibition (Rattus norvegicus) 5.96% | residual activity [7, 11] 100% | residual activity [8, 11] 96% | residual activity [9, 11] 56%
